Measured values reported in PubChem BioAssay (NCI).
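Results reflect a 48-hour exposure of cells in 96-well plates to compound at five concentrations. GI50 marks 50% less growth. Definition used: TGI = concentration required for complete inhibition of growth.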

How the values were obtained:
Assay in all cases: growth of human tumour cells (NCI), 48 h
HCT-15 colon = system: HCT-15 colon
MCF7 breast = system: MCF7 breast
SF-539 CNS = system: SF-539 CNS
SF-268 CNS = system: SF-268 CNS
CAKI-1 renal = system: CAKI-1 renal
786-0 renal = system: 786-0 renal
M14 melanoma = system: M14 melanoma
NCI-H226 lung = system: NCI-H226 lung
MOLT-4 leukemia = system: MOLT-4 leukemia
TK-10 renal = system: TK-10 renal

Row | SMILES | GI50 (HCT-15 colon) [µM] | TGI (HCT-15 colon) [µM] | GI50 (MCF7 breast) [µM] | TGI (MCF7 breast) [µM] | GI50 (SF-539 CNS) [µM] | TGI (SF-539 CNS) [µM] | GI50 (SF-268 CNS) [µM] | TGI (SF-268 CNS) [µM] | GI50 (CAKI-1 renal) [µM] | TGI (CAKI-1 renal) [µM] | GI50 (786-0 renal) [µM] | TGI (786-0 renal) [µM] | GI50 (M14 melanoma) [µM] | TGI (M14 melanoma) [µM] | GI50 (NCI-H226 lung) [µM] | TGI (NCI-H226 lung) [µM] | GI50 (MOLT-4 leukemia) [µM] | TGI (MOLT-4 leukemia) [µM] | GI50 (TK-10 renal) [µM] | TGI (TK-10 renal) [µM]
1 | OCc1c[nH]c2ccccc12 | 20.3 | 55.3 | 29.4 | 95.4 | 19.3 | 46.1 | 33.4 | > 100 | 15.8 | 52.8 | 33.7 | 93.3 | 23.4 | 54.1 | 17.4 | 48.1 | 39.1 | > 100 | 44.5 | > 100
2 | CCOc1cc2c(Cl)ncnc2c(OCC)c1OCC | 2.56 | 9.07 | 2.3 | 7.55 | 14 | 27.8 | 2.84 | 7.9 | 1.56 | 3.03 | 19 | 36.8 | 6.24 | 20.1 | 12.7 | 33.3 | 2.87 | 10.4 | 26.9 | > 76.2
3 | CC1=CC(=Nc2ccc(N(CCCl)CCCl)cc2)C=C(C)C1=O | 1.63 | 11 | 0.413 | 3.98 | 0.448 | 8.71 | 0.409 | 2.85 | 0.116 | 1.08 | 0.457 | 2.39 | 0.603 | 3.98 | 1.2 | 4.83 | 0.377 | > 25.6 | 1.94 | 5.55
4 | C[C@@H]1OC(O)[C@@H](F)[C@H](O)[C@@H]1O (stereo not given in full) | > 100 | > 100 | > 100 | > 100 | > 100 | > 100 | > 100 | > 100 | > 100 | > 100 | > 100 | > 100 | > 100 | > 100 | > 100 | > 100 | > 100 | > 100 | > 100 | > 100
5 | COc1cc([N+](=O)[O-])cc2c3c(n(C)c12)[C@@]1(C)CCC2c4ccc(OCc5ccccc5)cc4CCC2C1C3 (stereo not given in full) | 53.5 | > 100 | > 100 | > 100 | 66.7 | > 100 | > 100 | > 100 | 86.6 | > 100 | > 100 | > 100 | > 100 | > 100 | 80.4 | > 100 | > 100 | > 100 | 86 | > 100
6 | CC[C@@]1(O)C(=O)OCc2c1cc1n(c2=O)Cc2c-1nc1cc3c(cc1c2CCl)OCO3 | 0.192 | 12.3 | < 0.01 | > 100 | < 0.01 | < 0.0135 | < 0.01 | 4.62 | < 0.01 | 0.477 | < 0.01 | 0.238 | 0.032 | 0.403 | < 0.01 | 1.3 | < 0.01 | < 0.038 | 0.292 | 11.1
7 | CCCn1cnc2c(SCc3ccccc3Cl)nc(N)nc21 | 1.36 | 20.1 | 38.6 | > 100 | 9.81 | 44.8 | 12.1 | 92.7 | 6.43 | 44.1 | 14.9 | 31.6 | 17.6 | 61.9 | 16.4 | > 100 | 5.22 | 34.1 | 14.5 | > 100
8 | COc1cc(C2=C(c3ccccc3)COC2=O)cc(OC)c1OC | 2.96 | > 100 | 0.537 | > 100 | 1.26 | > 51.4 | 2.39 | > 76.5 | 0.585 | > 27.7 | 4.3 | > 100 | 1.79 | > 27.7 | 59.2 | > 100 | 4.18 | > 100 | 1.37 | > 30.6
9 | CC1(C)OC2[C@@H](CNC(=O)NC(=O)NC(=O)CI)O[C@@H](n3cnc4c(NC(=O)Nc5ccccc5)ncnc43)[C@H]2O1 (stereo not given in full) | 4.84 | 11.9 | 6.17 | 14.2 | 4.75 | 10.9 | 8.22 | 17.1 | 0.79 | 1.56 | 7.47 | 14.4 | 6.95 | 14.3 | 8.96 | 20.3 | 1.86 | 9.28 | 8.59 | 15.5
10 | C=CCCCCCCCCC(=O)[O][Sn]([CH2]CCC)([CH2]CCC)[CH2]CCC | 0.158 | 0.348 | 0.137 | 0.272 | 0.169 | 0.332 | 0.149 | 0.309 | 0.112 | 0.3 | 0.143 | 0.275 | 0.156 | 0.299 | 0.17 | 0.325 | 0.228 | 0.833 | 0.165 | 0.311
11 | O=C(/C(Br)=C/c1ccccc1)c1ccccc1 | 1.02 | 2.47 | 4.79 | 52.9 | 2.12 | 4.72 | 4.56 | 16.7 | 1.34 | 3.39 | 1.9 | 3.48 | 1.36 | 3.23 | 3.5 | 14.1 | 2.23 | 6.95 | 3.38 | 14.6
